# From PubChem BioAssay (NCI)
#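 Following 48 hours of exposure in 96-well plates, responses at five concentrations were used to interpolate endpoints linearly. Abbreviation: GI50, concentration required for 50% inhibition of growth. TGI marks complete inhibition of growth.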
# Experiments:
# Assay in all cases: growth of human tumour cells (NCI), 48 h
# [1] = tested on: SF-268 CNS
# [2] = tested on: OVCAR-5 ovarian
# [3] = tested on: UACC-62 melanoma
# [4] = tested on: RXF 393 renal
# [5] = tested on: SK-OV-3 ovarian
# [6] = tested on: COLO 205 colon
# [7] = tested on: HCT-116 colon
# [8] = tested on: CAKI-1 renal
# [9] = tested on: LOX IMVI melanoma
# [10] = tested on: HCT-15 colon
SMILES,GI50 [1],TGI [1],GI50 [2],TGI [2],GI50 [3],TGI [3],GI50 [4],TGI [4],GI50 [5],TGI [5],GI50 [6],TGI [6],GI50 [7],TGI [7],GI50 [8],TGI [8],GI50 [9],TGI [9],GI50 [10],TGI [10]
Cn1c2ccc(Br)cc2c2c3c(c4c5ccccc5[nH]c4c21)C(=O)N(O)C3=O,0.0763 µM,0.72 µM,1.33 µM,3.73 µM,0.183 µM,0.529 µM,0.158 µM,0.329 µM,0.265 µM,0.773 µM,0.231 µM,0.73 µM,0.112 µM,0.414 µM,0.22 µM,0.885 µM,0.0537 µM,0.193 µM,,
Cc1cn2c(/C=N/N=C(N)N)c(-c3cccs3)nc2s1,12.9 µM,36.6 µM,2.37 µM,7.37 µM,1.64 µM,3.12 µM,10.2 µM,46.2 µM,17.5 µM,37.6 µM,8.16 µM,69.4 µM,1.35 µM,2.63 µM,13.7 µM,27.5 µM,,,4.3 µM,18.4 µM
O=C(OCc1ncc(-c2ccc(C(F)(F)F)cc2)c(NC2CCCCCC2)n1)c1c(F)c(F)c(F)c(F)c1F,12.9 µM,28 µM,20 µM,36.5 µM,14.2 µM,29.2 µM,5.34 µM,21.3 µM,21.6 µM,39.1 µM,18 µM,37.8 µM,8.46 µM,25.9 µM,17.5 µM,37.3 µM,,,1.94 µM,4.78 µM
Cc1cc(N2CCSCC2)nc(NC2CCCC(Nc3ccnc4cc(Cl)ccc34)C2)n1 (stereo not given),1.38 µM,3.13 µM,2.88 µM,14.1 µM,1.94 µM,3.5 µM,1.41 µM,2.93 µM,1.98 µM,4.22 µM,,,,,,,,,1.24 µM,2.77 µM
O=C(/C=C/c1ccccc1)n1c(-c2ccc(Cl)cc2)nc2ccccc21,2.1 µM,6.14 µM,1.74 µM,4.21 µM,1.27 µM,2.88 µM,1.32 µM,3.12 µM,2.43 µM,5.71 µM,1.41 µM,2.78 µM,1.21 µM,2.88 µM,,,0.588 µM,1.91 µM,1.34 µM,7.06 µM
CCc1cccc(CC)c1NC(=O)C1=C(C)NC(C)=C(C(=O)Nc2c(CC)cccc2CC)C1c1ccc([N+](=O)[O-])cc1,,> 100 µM,,> 100 µM,,,,77.6 µM,,96.4 µM,,54.5 µM,,46.4 µM,,> 100 µM,,> 100 µM,,
CNC(=O)Cc1nc(-c2cccc(NS(=O)(=O)c3c(F)cccc3F)c2F)c(-c2ccnc(Nc3ccccc3)n2)s1,6.98 µM,> 50 µM,2.85 µM,> 50 µM,,,0.181 µM,2.84 µM,0.558 µM,27.9 µM,0.0188 µM,> 30.2 µM,1.05 µM,> 29.2 µM,0.385 µM,> 50 µM,0.0917 µM,5.38 µM,7.37 µM,> 50 µM
CC1=NN(C(=O)c2ccc([N+](=O)[O-])cc2)C(=O)C1N=Nc1ccccc1C(=O)O (stereo not given),,> 100 µM,,> 100 µM,,> 100 µM,,> 100 µM,,> 100 µM,,> 100 µM,,> 100 µM,,> 100 µM,,,,
COc1ccc2nc3cc([N+](=O)[O-])ccc3c(NCCCN(C)C)c2c1,0.295 µM,1.74 µM,0.768 µM,4.51 µM,0.384 µM,1.64 µM,,,0.231 µM,3.13 µM,0.221 µM,2.17 µM,0.036 µM,1.25 µM,1.24 µM,3.83 µM,0.249 µM,1.08 µM,3.46 µM,
COC1=CC(=O)C2C(C1=O)C(c1ccccc1)[C@H]2C (stereo not given in full),,> 100 µM,,> 100 µM,,> 100 µM,,> 100 µM,,> 100 µM,,> 100 µM,,,,,,> 100 µM,,35.9 µM
C=C[C@@]1(O)CCCC2=C(C(=O)OCC)CC[C@]21C,,> 100 µM,,> 100 µM,,,,> 100 µM,,> 100 µM,,> 100 µM,,,,,,,,> 100 µM
COc1cc(CNC2c3cc4c(cc3C(c3cc(OC)c(OC)c(OC)c3)[C@H]3C(=O)OCC23)OCO4)cc(OC)c1OC (stereo not given in full),,> 100 µM,,> 100 µM,,0.651 µM,,,,> 100 µM,,0.37 µM,,0.707 µM,,,,> 100 µM,,> 100 µM
CC(=O)[CH-]C(=O)c1ccccc1.CC(=O)[CH-]C(=O)c1ccccc1.CCOCC[O-].CCOCC[O-].[Ti+4],13.8 µM,34.8 µM,26.8 µM,60.7 µM,15.5 µM,37.8 µM,,,25.2 µM,74.9 µM,,,17.3 µM,35.6 µM,19.2 µM,57.8 µM,37.8 µM,> 100 µM,28.3 µM,91.9 µM
CCN(CC)CCCNC(=O)c1c2c(n3ccccc13)C(=O)c1ncccc1C2=O,1.11 µM,7.09 µM,1.18 µM,4.9 µM,0.472 µM,2.21 µM,1.16 µM,3.13 µM,1.59 µM,5.65 µM,0.123 µM,0.399 µM,0.25 µM,1.09 µM,,,0.391 µM,1.8 µM,0.935 µM,2.54 µM
CCc1cc(CCC(=O)Nc2c(C)cccc2C)[nH]n1,,> 100 µM,,> 100 µM,,> 100 µM,,> 100 µM,,> 100 µM,,> 100 µM,,> 100 µM,,> 100 µM,,,,> 100 µM
CCOC(=O)C(C)(C)Oc1ccc(/C=C/C(=O)c2ccc(Cl)cc2)cc1,,37.1 µM,,,,44 µM,,30.5 µM,,,,53.2 µM,,31.5 µM,,,,30.7 µM,,34.3 µM
CN(C)C=C1C(Cl)=C(C=O)CC(C=O)=C1Cl,,27.6 µM,,30 µM,,32.5 µM,,,,79.7 µM,,30.6 µM,,,,31.2 µM,,6.07 µM,,11.9 µM
